Key:
[1] = Vapour adsorption and vapour desorption (moisture sorption isotherm); assay type: physicochemical; details: 25° C.
Description: The moisture sorption isotherm was recorded using a Dynamic Vapour Sorption Analyzer IGA Sorp from Hiden Analytical. The measuring temperature was 25° C. There was no sample preparation.

Solubility in water = assay type: physicochemical; details: comparison in words
Description: Method: Saturated solutions of the test substance were prepared by stirring a suspension in water at 25° C. for 16 hours. The suspensions obtained were then filtered, and the content in the filtrate was determined by HPLC.

[2] = test system: recombinant A549 cell line with luciferase reporter under hypoxia-responsible elements; experiment: Cellular, functional in vitro test (luciferase reporter under hypoxia-responsible elements); assay type: cell-based; details: Homo sapiens; A549-derived luciferase reporter cell line
Excerpt: The activity of the compounds according to the invention is quantified with the aid of a recombinant cell line. The cell is originally derived from a human lung carcinoma cell line (A549, ATCC: American Type Culture Collection, Manassas, Va. 20108, USA). The test cell line is transfected in a stable manner with a vector which contains the reporter gene of Photinus pyralis luciferase (called luciferase in the following) under the control of an artificial minimal promoter. The minimal promoter comprises two hypoxia-responsible elements upstream of a TATA box [Oehme F., Ellinghaus P., Kolkhof P., Smith T. J., Ramakrishnan S., Hatter J., Schramm M., Flamme I., Biochem. Biophys. Res. Commun. 296 (2), 343-9 (2002)]. Under the effect of hypoxia (e.g. culturing in the presence of 1% oxygen for 24 hours) or under the action of non-selective dioxygenase inhibitors (e.g. desferroxamine in a concentration of 100 μM, cobalt chloride in a concentration of 100 μM or N-oxalylglycine diethyl ester in a concentration of 1 mM), the test cell line produces luciferase, which can be detected and quantified with the aid of suitable bioluminescence reagents (e.g. Steady-Glo® Luciferase Assay System, Promega Corporation, Madison, Wis. 53711, USA) and a suitable luminometer. […]

[3] = Water uptake / hygroscopicity at customary environmental conditions; assay type: physicochemical
Description: The compound of the formula (I) is hygroscopic and, at customary environmental conditions (20-35° C., atmospheric pressure), takes up up to about 6% by weight of water even at a relative atmospheric humidity above 20% rh. At an atmospheric humidity of 30% rh, the uptake of 6% by weight of water is almost complete. If the atmospheric humidity decreases below 30% rh, the compound of the formula (I) releases part of the water it comprises. This uptake of water or release of water renders handling of the compound of the formula (I), for example weighing operations, and the production of the compound of the formula (I) in a uniform, stable and definined form for use in medicaments or the production of medicaments comprising compound of the formula (I) more difficult. In particular, this increases the technical expenditure during the production of administration forms comprising the compound of the formula (I), such as, for example, tablets, granules or drink solutions, since measures for controlling and regulating atmospheric humidity are required to maintain a uniform concentration of the compound of the formula (I). […]

Desorption ([1]; 5% rh)	Adsorption ([1]; 0% rh)	Desorption ([1]; 0% rh)	Adsorption ([1]; 10% rh)	Desorption ([1]; 10% rh)	Desorption ([1]; 20% rh)	solubility in water compared to the compound of the formula (I) (Solubility in water)	EC50 [2]	water comprised [3]	Compound
0.1% (5% rh)									Oc1c(-n2ccnn2)cnn1-c1cc(N2CCOCC2)ncn1 [Compound of the formula (I), 1-[6-(morpholin-4-yl)pyrimidin-4-yl]-4-(1H-1,2,3-triazol-1-yl)-1H-pyrazol-5-ol, reference compound]
	0%	0%	0%	0%	0%	higher solubility in water	7 µM	less than 0.5 % by weight	[Na+].[O-]c1c(-n2ccnn2)cnn1-c1cc(N2CCOCC2)ncn1 [Compound of the formula (II), sodium 1-[6-(morpholin-4-yl)pyrimidin-4-yl]-4-(1H-1,2,3-triazol-1-yl)-1H-pyrazol-5-olate]

Source: patent US9533972B2, “Substituted sodium-1H-pyrazole-5-olate” (Bayer Intellectual Property GmbH, priority 2010, dated 2017)
